Measurements as given in the NIST ThermoML archive (doi:10.1016/j.jct.2016.06.034).

Assay: mn = molality of the nth substance listed, in mol/kg
Details: for electrical conductivity / speed of sound / mass density: 84.5 kPa, Liquid; for electrical conductivity: Alternating current cell with electrodes; for speed of sound: Frequency=3 MHz, Sing-around technique in a fixed-path interferometer; for mass density: Vibrating tube method; for surface tension liquid-gas: platinum plate method

CCCCCCCCCCn1cc[n+](C)c1.[Br-] [1-decyl-3-methylimidazolium bromide] + O
Details	electrical conductivity [S/m]	mass density [kg/m3]	speed of sound [m/s]	surface tension liquid-gas [mN/m]
298.15 K, m1 = 0.0095	–	997.416	1498.6	–
298.15 K, m1 = 0.01379	–	997.587	1499.5	–
298.15 K, m1 = 0.01652	–	997.693	1500	–
298.15 K, m1 = 0.02179	–	997.899	1500.9	–
298.15 K, m1 = 0.02615	–	998.07	1501.7	–
298.15 K, m1 = 0.03106	–	998.263	1502.5	–
298.15 K, m1 = 0.03338	–	998.353	1502.9	–
298.15 K, m1 = 0.03397	0.283	–	–	–
298.15 K, m1 = 0.03638	0.3	–	–	–
298.15 K, m1 = 0.03819	–	998.54	1503.7	–
298.15 K, m1 = 0.03875	0.317	–	–	–
298.15 K, m1 = 0.04039	0.327	–	–	–
298.15 K, m1 = 0.0406	–	998.636	1503.9	–
298.15 K, m1 = 0.04217	0.338	–	–	–
298.15 K, m1 = 0.04332	–	998.732	1504.2	–
298.15 K, m1 = 0.04391	0.346	–	–	–
298.15 K, m1 = 0.04608	0.354	–	–	–
298.15 K, m1 = 0.04614	–	998.829	1504.4	–
298.15 K, m1 = 0.04825	0.361	–	–	–
298.15 K, m1 = 0.05051	0.368	–	–	–
298.15 K, m1 = 0.0526	0.373	–	–	–
298.15 K, m1 = 0.05487	0.379	–	–	–
298.15 K, m1 = 0.05515	–	999.136	1504.7	–
298.15 K, m1 = 0.05749	0.386	–	–	–
298.15 K, m1 = 0.06017	0.392	–	–	–
298.15 K, m1 = 0.06271	0.398	–	–	–
298.15 K, m1 = 0.06396	–	999.429	1504.8	–
298.15 K, m1 = 0.07815	–	999.895	1504.9	–
298.15 K, m1 = 0.122	–	1001.31	1505.1	–
298.15 K, m1 = 0.1726	–	1002.91	1505.4	–
298.15 K, m1 = 0.2247	–	1004.51	1505.7	–
298.15 K, m1 = 0.2539	–	1005.39	1505.9	–
303.15 K, m1 = 1e-05	0.00018	–	–	–
303.15 K, m1 = 3e-05	0.000342	–	–	–
303.15 K, m1 = 4e-05	0.000511	–	–	–
303.15 K, m1 = 5e-05	0.000676	–	–	–
303.15 K, m1 = 7e-05	0.000835	–	–	–
303.15 K, m1 = 8e-05	0.001	–	–	–
303.15 K, m1 = 0.00015	0.00183	–	–	–
303.15 K, m1 = 0.00023	0.00267	–	–	–
303.15 K, m1 = 0.00038	0.00443	–	–	–
303.15 K, m1 = 0.00053	0.00608	–	–	–
303.15 K, m1 = 0.00082	0.00939	–	–	–
303.15 K, m1 = 0.00142	0.016	–	–	–
303.15 K, m1 = 0.0023	0.0256	–	–	–
303.15 K, m1 = 0.00351	0.0384	–	–	–
303.15 K, m1 = 0.00463	0.0502	–	–	–
303.15 K, m1 = 0.00617	0.0665	–	–	–
303.15 K, m1 = 0.00896	0.0945	–	–	–
303.15 K, m1 = 0.0095	–	996.005	1510.8	–
303.15 K, m1 = 0.01168	0.121	–	–	–
303.15 K, m1 = 0.01379	–	996.169	1511.6	–
303.15 K, m1 = 0.01458	0.148	–	–	–
303.15 K, m1 = 0.01652	–	996.273	1512	–
303.15 K, m1 = 0.01746	0.175	–	–	–
303.15 K, m1 = 0.01986	0.197	–	–	–
303.15 K, m1 = 0.02179	–	996.475	1512.8	–
303.15 K, m1 = 0.02235	0.218	–	–	–
303.15 K, m1 = 0.0248	0.24	–	–	–
303.15 K, m1 = 0.02615	–	996.639	1513.5	–
303.15 K, m1 = 0.0272	0.26	–	–	–
303.15 K, m1 = 0.02958	0.28	–	–	–
303.15 K, m1 = 0.03106	–	996.825	1514.3	–
303.15 K, m1 = 0.03192	0.299	–	–	–
303.15 K, m1 = 0.03338	–	996.912	1514.7	–
303.15 K, m1 = 0.03356	0.312	–	–	–
303.15 K, m1 = 0.0353	0.326	–	–	–
303.15 K, m1 = 0.03765	0.345	–	–	–
303.15 K, m1 = 0.03819	–	997.092	1515.4	–
303.15 K, m1 = 0.03995	0.361	–	–	–
303.15 K, m1 = 0.0406	–	997.186	1515.5	–
303.15 K, m1 = 0.04173	0.373	–	–	–
303.15 K, m1 = 0.04332	–	997.276	1515.8	–
303.15 K, m1 = 0.0437	0.385	–	–	–
303.15 K, m1 = 0.04561	0.393	–	–	–
303.15 K, m1 = 0.04614	–	997.377	1516	–
303.15 K, m1 = 0.0476	0.401	–	–	–
303.15 K, m1 = 0.04986	0.409	–	–	–
303.15 K, m1 = 0.05209	0.416	–	–	–
303.15 K, m1 = 0.05436	0.423	–	–	–
303.15 K, m1 = 0.05515	–	997.672	1516.2	–
303.15 K, m1 = 0.05698	0.43	–	–	–
303.15 K, m1 = 0.0591	0.436	–	–	–
303.15 K, m1 = 0.06148	0.443	–	–	–
303.15 K, m1 = 0.06396	–	997.957	1516.2	–
303.15 K, m1 = 0.07815	–	998.413	1516.2	–
303.15 K, m1 = 0.122	–	999.792	1516.1	–
303.15 K, m1 = 0.1726	–	1001.35	1516	–
303.15 K, m1 = 0.2247	–	1002.91	1516	–
303.15 K, m1 = 0.2539	–	1003.77	1515.9	–
308.15 K, m1 = 1e-05	0.000218	–	–	–
308.15 K, m1 = 3e-05	0.000397	–	–	–
308.15 K, m1 = 4e-05	0.000606	–	–	–
308.15 K, m1 = 7e-05	0.000959	–	–	–
308.15 K, m1 = 0.0001	0.00133	–	–	–
308.15 K, m1 = 0.00013	0.00169	–	–	–
308.15 K, m1 = 0.00017	0.00228	–	–	–
308.15 K, m1 = 0.00024	0.0032	–	–	–
308.15 K, m1 = 0.00039	0.0051	–	–	–
308.15 K, m1 = 0.00069	0.00888	–	–	–
308.15 K, m1 = 0.00098	0.0124	–	–	–
308.15 K, m1 = 0.0014	0.0178	–	–	–
308.15 K, m1 = 0.00242	0.0302	–	–	–
308.15 K, m1 = 0.00326	0.0401	–	–	–
308.15 K, m1 = 0.00348	0.0427	–	–	–
308.15 K, m1 = 0.0063	0.0752	–	–	–
308.15 K, m1 = 0.00691	–	–	–	46.2
308.15 K, m1 = 0.00928	0.108	–	–	–
308.15 K, m1 = 0.0095	–	994.377	1521.3	–
308.15 K, m1 = 0.01212	0.139	–	–	–
308.15 K, m1 = 0.01368	–	–	–	40.98
308.15 K, m1 = 0.01379	–	994.536	1522	–
308.15 K, m1 = 0.01499	0.169	–	–	–
308.15 K, m1 = 0.01652	–	994.638	1522.4	–
308.15 K, m1 = 0.01731	0.193	–	–	–
308.15 K, m1 = 0.01851	–	–	–	39.3
308.15 K, m1 = 0.02003	0.22	–	–	–
308.15 K, m1 = 0.02179	–	994.831	1523.2	–
308.15 K, m1 = 0.02313	0.25	–	–	–
308.15 K, m1 = 0.0251	–	–	–	38.12
308.15 K, m1 = 0.02573	0.275	–	–	–
308.15 K, m1 = 0.02615	–	994.993	1523.7	–
308.15 K, m1 = 0.0282	0.298	–	–	–
308.15 K, m1 = 0.03065	0.321	–	–	–
308.15 K, m1 = 0.03094	–	–	–	37.39
308.15 K, m1 = 0.03106	–	995.17	1524.4	–
308.15 K, m1 = 0.03312	0.343	–	–	–
308.15 K, m1 = 0.03338	–	995.253	1524.7	–
308.15 K, m1 = 0.03447	–	–	–	36.95
308.15 K, m1 = 0.03589	0.367	–	–	–
308.15 K, m1 = 0.03819	–	995.428	1525.4	–
308.15 K, m1 = 0.03832	0.388	–	–	–
308.15 K, m1 = 0.04053	0.406	–	–	–
308.15 K, m1 = 0.0406	–	995.52	1525.5	–
308.15 K, m1 = 0.04063	–	–	–	36.49
308.15 K, m1 = 0.04223	0.419	–	–	–
308.15 K, m1 = 0.04332	–	995.61	1525.8	–
308.15 K, m1 = 0.04385	0.429	–	–	–
308.15 K, m1 = 0.04569	0.439	–	–	–
308.15 K, m1 = 0.04614	–	995.708	1526	–
308.15 K, m1 = 0.0479	–	–	–	36.69
308.15 K, m1 = 0.04793	0.449	–	–	–
308.15 K, m1 = 0.04988	0.457	–	–	–
308.15 K, m1 = 0.05063	–	–	–	37.17
308.15 K, m1 = 0.05219	–	–	–	37.66
308.15 K, m1 = 0.05236	0.466	–	–	–
308.15 K, m1 = 0.05506	–	–	–	37.95
308.15 K, m1 = 0.05515	–	995.996	1526.1	–
308.15 K, m1 = 0.05533	0.477	–	–	–
308.15 K, m1 = 0.05718	0.483	–	–	–
308.15 K, m1 = 0.05941	0.492	–	–	–
308.15 K, m1 = 0.06163	0.498	–	–	–
308.15 K, m1 = 0.06382	0.507	–	–	–
308.15 K, m1 = 0.06396	–	996.274	1526.1	–
308.15 K, m1 = 0.07	–	–	–	38.27
308.15 K, m1 = 0.07815	–	996.719	1526	–
308.15 K, m1 = 0.09792	–	–	–	38.41
308.15 K, m1 = 0.122	–	998.067	1525.6	–
308.15 K, m1 = 0.1694	–	–	–	38.44
308.15 K, m1 = 0.1726	–	999.588	1525.1	–
308.15 K, m1 = 0.2247	–	1001.11	1524.7	–
308.15 K, m1 = 0.2268	–	–	–	38.2
308.15 K, m1 = 0.2539	–	1001.95	1524.4	–
